The values below come from ChEMBL document CHEMBL1201862, “PubChem BioAssay data set” (2004).

Holding throughout (test): inhibition of tumour cell growth, NCI panel, 48 h
Assay [1] concerns MOLT-4.
Assay [2] concerns HOP-62.
Assay [3] deals with UACC-62.
The subject of assay [4] is HOP-92.
The test system of assay [5] is SF-295.
Assay [6] relates to COLO 205.
Assay [7] has as its system HT-29.
For assay [8], the system named is UACC-257.
Assay [9] relates to RPMI-8226.
Assay [10] has as its system EKVX.
Assay [11] has as its system SK-MEL-28.
Assay [12] concerns KM12.
Assay [13] has as its system SNB-75.
Assay [14] relates to UO-31.
For assay [15], the system named is SF-539.
The test system of assay [16] is DU-145.
Assay [17] concerns A549.
In assay [18] the test system is HCT-116.
The subject of assay [19] is TK-10.
The subject of assay [20] is MCF7.

Molecules are shown by their SMILES.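 96-well plates; 48 h exposure; 5 concentrations. Endpoints by linear interpolation between flanking doses. Not reached: highest tested concentration assigned. GI50 is the concentration that inhibits growth by half.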 Calls of active or inactive are those of the source. Cut-off read from the data, not from the text of the source: active = GI50 up to about 1.1 µM and inactive = higher.

Turning to `CN(C)Cc1cc(/N=N/c2ccccc2)cc(CN(C)C)c1O`, the GI50 in [1] was 45.8 µM (inactive); in [2], > 100 µM (inactive); in assay [3], > 100 µM (inactive); in assay [4] it was 63.1 µM (inactive); in assay [5], > 100 µM (inactive); in [6], 20.5 µM (inactive). Further, the GI50 was 73.8 µM (inactive) in assay [7]; > 100 µM (inactive) in assay [8]; 80.5 µM (inactive) in assay [9]; > 100 µM (inactive) in [10]; > 100 µM (inactive) in assay [11]; 98.6 µM (inactive) in assay [12]. For the same compound, the GI50 in [13] is > 100 µM (inactive); in assay [14], 55 µM (inactive); in [15], > 100 µM (inactive); in assay [16] it was 92.5 µM (inactive); in assay [17], > 100 µM (inactive); in assay [18], 53.6 µM (inactive). The GI50 in assay [19] is > 100 µM (inactive).

With `CCC(C)C1NC(=O)C2CCCN2C(=O)C(CC2CO2)OC(=O)CCNC(=O)C(C)N(C)C(=O)C(C(C)C)N(C)C1=O` (stereo not drawn), the GI50 in [1] was 1.57 µM (inactive); in assay [2] it was 0.112 µM (active); in assay [3], 0.0209 µM (active); in [4] it was > 8.22 µM (inactive); in [5], 0.176 µM (active); in assay [6] it was < 0.0236 µM (active). Besides, the GI50 in assay [7] was 1.73 µM (inactive); in assay [8] it was < 0.01 µM (active); in [9], 0.968 µM (active); in assay [10] it was 35.4 µM (inactive); in [11] it was > 100 µM (inactive); in assay [12], 1.06 µM (active). Besides, the GI50 is 0.331 µM (active) in assay [13]; 7.31 µM (inactive) in assay [14]; 0.199 µM (active) in [15]; 0.197 µM (active) in assay [17]; 0.0267 µM (active) in assay [20]; < 0.0279 µM (active) in assay [18]. The GI50 in assay [19] is > 14 µM (inactive).

As to `S=C1c2ccc(Cl)cc2-n2cnnc2C2CSCN12` (stereo not drawn), the GI50 in assay [1], in [2], in assay [3], in [5], in assay [6] and in [7] was > 100 µM (inactive) in each case. Further, the GI50 in assay [8], in [9], in assay [10], in assay [11], in assay [12] and in [13] was > 100 µM (inactive) throughout. Moreover, the GI50 is > 100 µM (inactive) in assay [14]; > 100 µM (inactive) in [16]; > 100 µM (inactive) in assay [17]; > 100 µM (inactive) in assay [20]; 62.5 µM (inactive) in assay [18]; > 100 µM (inactive) in assay [19].

`Cc1nn(C(=O)Cc2ccccc2)c2c1C(c1ccc(Cl)cc1)SC(=N)N2` (stereo not drawn): the GI50 in assay [1], in assay [2], in assay [3], in assay [5], in assay [6] and in assay [7] was > 100 µM (inactive) throughout. The GI50 in assay [8] was > 100 µM (inactive); in assay [9], > 100 µM (inactive); in assay [10] it was > 100 µM (inactive); in [11], > 100 µM (inactive); in [12], > 100 µM (inactive); in assay [13] it was 17.2 µM (inactive). Moreover, the GI50 in assay [15], in assay [16], in assay [17], in assay [20], in assay [18] and in assay [19] was > 100 µM (inactive) each time.

Regarding `CC(C)(C)OC(=O)NCC(=O)NC1C/C(=N\O)c2sccc21` (stereo not drawn), the GI50 in assay [1] was 0.621 µM (active); in assay [2], > 100 µM (inactive); in assay [3] it was > 100 µM (inactive); in assay [5] it was > 100 µM (inactive); in [6], > 100 µM (inactive); in [7], > 100 µM (inactive). Also, the GI50 in [8], in assay [10], in assay [11], in assay [13], in assay [14] and in assay [15] was > 100 µM (inactive) each time. Moreover, the GI50 in [16], in assay [17], in assay [20], in assay [18] and in assay [19] was > 100 µM (inactive) each time.

Consider `N#Cc1c(-c2ccccc2)c(C=O)c(=O)n2c1[nH]c1ccccc12`, for which the GI50 in assay [1] is 33.7 µM (inactive); in [3], 40.7 µM (inactive); in assay [5], > 100 µM (inactive); in assay [6], 53.1 µM (inactive); in [7], 92 µM (inactive); in assay [8] it was > 100 µM (inactive). In addition, the GI50 was 63.2 µM (inactive) in assay [9]; > 100 µM (inactive) in assay [10]; 23.9 µM (inactive) in assay [11]; 60.1 µM (inactive) in assay [12]; 22.1 µM (inactive) in [13]; 40.6 µM (inactive) in assay [14]. For the same compound, the GI50 is 77.1 µM (inactive) in assay [15]; > 100 µM (inactive) in assay [16]; > 100 µM (inactive) in [17]; 82.4 µM (inactive) in assay [18]; 77.3 µM (inactive) in assay [19].

Consider `COc1ccc(N2C(=O)C3c4[nH]c5ccc(Br)cc5c4C4CCC(C(C)(C)C)CC4C3C2=O)cc1` (stereo not drawn), for which the GI50 in [1], in assay [2], in [3], in assay [5], in assay [6] and in [7] was > 100 µM (inactive) each time. Further, the GI50 in assay [8], in assay [9], in assay [10], in assay [11], in assay [12] and in [15] was > 100 µM (inactive) throughout. For the same compound, the GI50 in [16], in assay [17], in assay [20], in assay [18] and in assay [19] was > 100 µM (inactive) each time.

With `O=C1CCCCC/C1=C\c1ccc(Cl)cc1`, the GI50 in assay [1] was 26.2 µM (inactive); in assay [2], 99.8 µM (inactive); in [3], 25.2 µM (inactive); in assay [4], 35.7 µM (inactive); in assay [5], 22 µM (inactive); in assay [6] it was 18.2 µM (inactive). For the same compound, the GI50 in assay [7] was 21.8 µM (inactive); in [8], 32.4 µM (inactive); in assay [9] it was 25.4 µM (inactive); in assay [10], 44.3 µM (inactive); in [11], 49.3 µM (inactive); in assay [12], 17.7 µM (inactive). The GI50 in assay [13] is 17 µM (inactive); in assay [14], 27.2 µM (inactive); in [16] it was 39.2 µM (inactive); in [17], 36.1 µM (inactive); in [18], 35.4 µM (inactive); in [19], 28.1 µM (inactive).
